Biological target: T1, lysozyme (Lyz) from chicken egg white (Gallus gallus, UniProt P00698)
T1 construct: native mature protein from egg white (signal peptide removed), 129 residues, four disulfides, commercial (Sigma-Aldrich), used without further purification
Test: quenching of ligand fluorescence by protein (excitation […] nm), Stern-Volmer, static
Settings: pH 7.4, 298 K, 10 mM Trizma; zwitterionic species; KSV taken as binding constant

T1 sequence (P00698 19-147): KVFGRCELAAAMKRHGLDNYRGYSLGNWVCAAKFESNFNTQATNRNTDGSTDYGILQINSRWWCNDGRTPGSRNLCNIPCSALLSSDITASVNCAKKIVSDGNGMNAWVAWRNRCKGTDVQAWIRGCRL

Row | Stern-Volmer binding constant (KSV) | Structure (SMILES)
1 | (0.27 ± 0.02) × 10^4 L mol^-1 | C[C@H]1COc2c(N3CCN(C)CC3)c(F)cc3c(=O)c(C(=O)O)cn1c23 [Levofloxacin]
2 | (1.80 ± 0.01) × 10^4 L mol^-1 | O=C(O)c1cn(C2CC2)c2cc(N3CCNCC3)c(F)cc2c1=O [Ciprofloxacin, 1-cyclopropyl-6-fluoro-4-oxo-7-(piperazin-1-yl)-1,4-dihydroquinoline-3-carboxylic acid]

Reference: article PMC6017444, “Effects of Lysozyme on the Activity of Ionic of Fluoroquinolone Species” (Molecules : A Journal of Synthetic Chemistry and Natural …, 2018)
